Structures can show the parent of a compound that is named as a salt.
How the values were obtained:
Format in all cases: cell-based
[1] = system: L6-myotubes; experiment: Measurement of intracellular cAMP levels in differentiated L6 cells (alpha screen cAMP kit), compared to isoproterenol; conditions: Rattus norvegicus, L6, 0.25 h, agonist 1×10^−5 M, 15 min, read-out: Biological example 2: intracellular cAMP levels, activity compared to that of isoproterenol
Procedure, shortened: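 L6 myoblasts were differentiated into myotubes over 7 days in 2% FBS, then serum-starved overnight. Agonist at 1×10^−5 M final was applied for 15 min in HBSS with 1% BSA, 5 mM HEPES and 1 mM IBMX, pH 7.4. After ethanol extraction and lysis, cAMP was quantified by AlphaScreen, with activity expressed relative to isoproterenol.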

[2] = system: L6-myotubes; experiment: Glucose uptake in differentiated L6-myotubes (3H-2-deoxyglucose), compared to isoproterenol; conditions: agonist 1×10^−5 M, 50 nM 3H-2-deoxyglucose
Procedure, shortened: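 Serum-starved differentiated L6 myotubes stimulated with agonist at 1×10^−5 M for 1 h 40 min, re-dosed in glucose-free medium for 20 min, then given 50 nM ^3H-2-deoxyglucose for 10 min. Uptake read by β-counting of NaOH lysates; activity expressed relative to isoproterenol.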

[3] = system: L6-myotubes; experiment: Glucose uptake in L6-myotubes in the presence of the β2-antagonist ICI-118,551; conditions: differentiated L6-myotubes; compound 1×10^−5 M; ICI-118,551 1×10^−5 M
Procedure: L6-myoblasts were grown in Dulbecco's Modified Eagle's Medium (DMEM) containing 1 g/L glucose supplemented with 10% fetal bovine serum, 2 mM L-Glutamine, 50 U/mL penicillin, 50 μg/mL streptomycin and 10 mM HEPES. Cells were plated at 1×10^5 cells per mL in 24-well plates. After reaching 90% confluence the cells were grown in medium containing 2% FBS for 7 days where upon cells differentiated into myotubes.
Differentiated L6-myotubes were serum-starved overnight in medium containing 0.5% fatty-acid free BSA and were incubated with the β2-adrenergic receptor antagonist ICI-118,551 at a final concentration of 1×10^−5 M for 30 min. The cells were stimulated with a compound of the invention, at a final concentration of 1×10^−5 M. After 1 h 40 min the cells were washed twice with warm, glucose free medium or PBS and additional portions of the compound of the invention and the antagonist were added. After 20 min the cells were exposed to 50 nM ^3H-2-deoxyglucose for 10 min before washed with ice cold glucose free medium or PBS three times and lysed with 0.2 M NaOH, 400 μL/well, for 1 h at 60° C. The cell lysate was mixed with 4 mL scintillation buffer (Emulsifier Safe, Perkin Elmer) and the radioactivity was detected in a β-counter (Tri-Carb 4810TR, Perkin Elmer). The activity for each compound is compared to that of isoproterenol.

## COC(=O)[C@H]1CC[C@@H](CCC(C)(C)NC[C@H](O)c2cncc(F)c2)CC1 [Example 112, Methyl (1S,4s)-4-(3-(((R)-2-(5-fluoropyridin-3-yl)-2-hydroxyethyl)amino)-3-methylbutyl)cyclohexane-1-carboxylate]
[1]
  Emax at 10 µM: 25 to 50%
[2]
  Biological example 1: glucose uptake, activity compared to that of isoproterenol: + + +
[3]
  Biological example 3: glucose uptake in the presence of the β2-antagonist ICI-118,551, activity compared to that of isoproterenol: − (less than 25%)

## COC(=O)[C@H]1CC[C@H](CC(C)(C)NC[C@H](O)c2cccc(F)c2)CC1 [Example 107, Methyl (1R,4r)-4-(2-(((R)-2-(3-Fluorophenyl)-2-hydroxyethyl)amino)-2-methylpropyl)cyclohexane-1-carboxylate]
[1]
  Emax at 10 µM: < 25%
[2]
  Biological example 1: glucose uptake, activity compared to that of isoproterenol: + + +
[3]
  Biological example 3: glucose uptake in the presence of the β2-antagonist ICI-118,551, activity compared to that of isoproterenol: − (less than 25%)

## CC(C)(C[C@H]1CC[C@H](N)CC1)NC[C@H](O)c1cncc(F)c1 [Example 85, (R)-2-((1-((1r,4R)-4-Aminocyclohexyl)-2-methylpropan-2-yl)amino)-1-(5-fluoropyridin-3-yl)ethan-1-ol]
[1]
  Emax at 10 µM: < 25%
[2]
  Biological example 1: glucose uptake, activity compared to that of isoproterenol: + + +
[3]
  Biological example 3: glucose uptake in the presence of the β2-antagonist ICI-118,551, activity compared to that of isoproterenol: − (less than 25%)

## CS(=O)(=O)N[C@H]1CC[C@H](CNC[C@H](O)c2cccc(F)c2)CC1 [Example 71, N-((1R,4r)-4-((((R)-2-(3-Fluorophenyl)-2-hydroxyethyl)amino)methyl)-cyclohexyl)methanesulfonamide]
[1]
  Emax at 10 µM: < 25%
[2]
  Biological example 1: glucose uptake, activity compared to that of isoproterenol: + +

## CC(C)(C[C@H]1CC[C@@H](NS(C)(=O)=O)CC1)NC[C@H](O)c1cccc(F)c1 [Example 170, N-((1S,4s)-4-(2-(((R)-2-(3-Fluorophenyl)-2-hydroxyethyl)amino)-2-methylpropyl)cyclohexyl)methanesulfonamide hydrochloride]
[1]
  Emax at 10 µM: < 25%
[2]
  Biological example 1: glucose uptake, activity compared to that of isoproterenol: + + +

## COC(=O)[C@H]1CC[C@H](CCC(C)(C)NC[C@H](O)c2cncc(F)c2)CC1 [Example 116, Methyl (1R,4r)-4-(3-(((R)-2-(5-fluoropyridin-3-yl)-2-hydroxyethyl)amino)-3-methylbutyl)cyclohexane-1-carboxylate]
[1]
  Emax at 10 µM: < 25%
[2]
  Biological example 1: glucose uptake, activity compared to that of isoproterenol: + + +
[3]
  Biological example 3: glucose uptake in the presence of the β2-antagonist ICI-118,551, activity compared to that of isoproterenol: − (less than 25%)

## CC(C)(C[C@H]1CC[C@@H](S(N)(=O)=O)CC1)NC[C@H](O)c1cncc(F)c1 [Example 197, (1S,4s)-4-(2-(((R)-2-(5-Fluoropyridin-3-yl)-2-hydroxyethyl)amino)-2-methylpropyl)cyclohexane-1-sulfonamide dihydrochloride]
[1]
  Emax at 10 µM: < 25%
[2]
  Biological example 1: glucose uptake, activity compared to that of isoproterenol: + + +

## CC(C)(C[C@H]1CC[C@@H](NC(=O)C(F)(F)F)CC1)NC[C@H](O)c1cccc(F)c1 [Example 168, 2,2,2-Trifluoro-N-((1S,4s)-4-(2-(((R)-2-(3-Fluorophenyl)-2-hydroxyethyl)-amino)-2-methylpropyl)cyclohexyl)acetamide hydrochloride]
[1]
  Emax at 10 µM: < 25%
[2]
  Biological example 1: glucose uptake, activity compared to that of isoproterenol: + + +

## CN(C)S(=O)(=O)[C@H]1CC[C@@H](CC(C)(C)NC[C@H](O)c2cccc(F)c2)CC1.Cl [Example 188, (1S,4s)-4-(2-(((R)-2-(3-fluorophenyl)-2-hydroxyethyl)amino)-2-methyl-propyl)-N,N-dimethylcyclohexane-1-sulfonamide hydrochloride]
[1]
  Emax at 10 µM: 25 to 50%
[2]
  Biological example 1: glucose uptake, activity compared to that of isoproterenol: + + +

## O[C@@H](CNCC[C@H]1CC[C@H](O)CC1)c1cncc(F)c1 [Example 48, (1R,4r)-4-(2-(((R)-2-(5-Fluoropyridin-3-yl)-2-hydroxyethyl)amino)-ethyl)cyclohexan-1-ol]
[1]
  Emax at 10 µM: < 25%
[2]; read-out: Biological example 1: glucose uptake, activity compared to that of isoproterenol
  Emax at 10 µM: 25 to 50%

From patent US20240390298A1, “CYCLOHEXYL BETA-HYDROXY ALKYL AMINES AND MEDICAL USES THEREOF” (ATROGI AB, priority 2021, published 2024)
